In ChEMBL document CHEMBL4354835, “Selective Blockade of Neuronal BK (α + β4) Channels Preventing Epileptic Seizure” (J Med Chem, 2020):
Activity calls are given as the source filed them. The rule behind the calls is not given here.

Legend:
[1] = target: T1, Calcium-activated potassium channel subunit beta-4 (Homo sapiens, UniProt Q86W47); assay: Binding affinity to NT-495 fluorophore reagent labelled human BK beta4 (45 to 166 residues) incubated for 30 mins by microscale thermophoresis assay
T1 sequence (Q86W47 whole entry): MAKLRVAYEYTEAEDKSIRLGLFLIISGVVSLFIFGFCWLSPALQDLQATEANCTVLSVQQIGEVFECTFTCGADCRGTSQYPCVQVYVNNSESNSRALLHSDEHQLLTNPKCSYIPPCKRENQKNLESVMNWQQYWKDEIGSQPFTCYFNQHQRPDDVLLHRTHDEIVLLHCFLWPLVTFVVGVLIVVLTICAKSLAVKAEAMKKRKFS

KCNMA1/KCNMB4 = KCNMA1/KCNMB4 (Homo sapiens, UniProt Q12791+Q86W47); assay: Inhibition of human BK alpha/beta4 channel expressed in HEK293T cells assessed as K+ outward current fraction at 10 uM at -80 mV holding potential by whole cell patch clamp method relative to control; format: cell-based
Rattus norvegicus [2] = organism: Rattus norvegicus; assay: Effect on neuronal network in PTZ-induced epileptic seizures Sprague-Dawley rat model assessed as reduced total PSD frequency waves compound infused into hippocampal region and 10 mins later injected with PTZ and measured after 2 hrs by power spectral density analysis; format: functional, organism-based
Rattus norvegicus [3] = organism: Rattus norvegicus; assay: (§1) Inhibition of C-Fos expression in PTZ-induced epileptic seizures Sprague-Dawley rat model assessed as inhibition of FLI-positive pyramidal neurons in CA3 region of ipsilateral hippocampus at 10 uM compound infused into hippocampal region and 10 mins later injected with PTZ and measured after 2 hrs by immunohistochemistry; format: functional, organism-based
Rattus norvegicus [4] = organism: Rattus norvegicus; assay: Effect on neuronal network in PTZ-induced epileptic seizures Sprague-Dawley rat model assessed as lowered PSD at theta wave band compound infused into hippocampal region and 10 mins later injected with PTZ and measured after 2 hrs by power spectral density analysis; format: functional, organism-based
Rattus norvegicus [5] = organism: Rattus norvegicus; assay: Effect on neuronal network in PTZ-induced epileptic seizures Sprague-Dawley rat model assessed as lowered PSD at alpha wave band compound infused into hippocampal region and 10 mins later injected with PTZ and measured after 2 hrs by power spectral density analysis; format: functional, organism-based
Rattus norvegicus [6] = organism: Rattus norvegicus; assay: as §1, with “granular” for “pyramidal”, “DG” for “CA3”; format: functional, organism-based
Rattus norvegicus [7] = organism: Rattus norvegicus; assay: Effect on neuronal network in PTZ-induced epileptic seizures Sprague-Dawley rat model assessed as lowered PSD at delta wave band compound infused into hippocampal region and 10 mins later injected with PTZ and measured after 2 hrs by power spectral density analysis; format: functional, organism-based
Rattus norvegicus [8] = organism: Rattus norvegicus; assay: Anticonvulsant activity against PTZ-induced epileptic seizure Sprague-Dawley rat model assessed as reduction in mortality rate compound infused into hippocampal region and 10 mins later injected with PTZ and measured for 2 hrs post PTZ-stimulation; format: functional, organism-based
Rattus norvegicus [9] = organism: Rattus norvegicus; assay: Anticonvulsant activity against PTZ-induced epileptic seizures Sprague-Dawley rat model assessed as decrease in number of seizures at high stage (stage 4 and 5) compound infused into hippocampal region and 10 mins later injected with PTZ and measured for 2 hrs post-PTZ stimulation; format: functional, organism-based
Rattus norvegicus [10] = organism: Rattus norvegicus; assay: Inhibition of field potential response in PTZ-induced epileptic seizure Sprague-Dawley rat model compound infused into hippocampal region and 10 mins later injected with PTZ and measured after 2 hrs by microarray electrode based analysis; format: functional, organism-based
Rattus norvegicus [11] = organism: Rattus norvegicus; assay: Anticonvulsant activity against PTZ-induced epileptic seizure Sprague-Dawley rat model assessed as duration of seizure compound infused into hippocampal region and 10 mins later injected with PTZ and measured for 2 hrs post PTZ-stimulation (reference value: 376 +/- 76.43 sec); format: functional
[12] = target: T2, KCNMA1/KCNMB4 (Rattus norvegicus) (UniProt Q62976+Q9ESK8); assay: Inhibition of BK alpha/beta-4 in PTZ-stimulated rat hippocampal pyramidal neurons assessed as larger action potential width at 300 pA current injection at -80mV holding potential measured after 10 mins by whole cell current clamp assay; format: protein-complex assay
Rattus norvegicus [13] = organism: Rattus norvegicus; assay: (§2) Neuroprotective activity in PTZ-induced epileptic seizure Sprague-Dawley rat model assessed as inhibition of hippocampal destruction by measuring increase in Nissl stained pyramidal neurons in contralateral hippocampus CA1 region compound infused into hippocampal region and 10 mins later injected with PTZ and measured after 3 days by Nissl staining based microscopic analysis; format: functional, organism-based
Rattus norvegicus [14] = organism: Rattus norvegicus; assay: as §1, with “contralateral” for “ipsilateral”; format: functional, organism-based
Rattus norvegicus [15] = organism: Rattus norvegicus; assay: Effect on neuronal network in PTZ-induced epileptic seizures Sprague-Dawley rat model assessed as lowered PSD at beta wave band compound infused into hippocampal region and 10 mins later injected with PTZ and measured after 2 hrs by power spectral density analysis; format: functional, organism-based
[16] = target: T2, KCNMA1/KCNMB4 (Rattus norvegicus); assay: Inhibition of BK alpha/beta-4 in PTZ-stimulated rat hippocampal pyramidal neurons assessed as increase in AHP size at 300 pA at -80mV holding potential measured after 10 mins by whole cell current clamp assay; format: protein-complex assay
[17] = target: T2, KCNMA1/KCNMB4 (Rattus norvegicus); assay: Inhibition of BK alpha/beta-4 in PTZ-stimulated rat hippocampal pyramidal neurons assessed as slower decay of after hyperpolarization at 300 pA at -80mV holding potential measured after 10 mins by whole cell current clamp assay; format: protein-complex assay
Rattus norvegicus [18] = organism: Rattus norvegicus; assay: as §1, with “granular” for “pyramidal”, “DG” for “CA3”, “contralateral” for “ipsilateral”; format: functional, organism-based
Rattus norvegicus [19] = organism: Rattus norvegicus; assay: as §2, with “ipsilateral” for “contralateral”, “CA3” for “CA1”; format: functional, organism-based
Rattus norvegicus [20] = organism: Rattus norvegicus; assay: Effect on neuronal network in PTZ-induced epileptic seizures Sprague-Dawley rat model assessed as lowered PSD at gamma wave band compound infused into hippocampal region and 10 mins later injected with PTZ and measured after 2 hrs by power spectral density analysis; format: functional, organism-based
Rattus norvegicus [21] = organism: Rattus norvegicus; assay: Anticonvulsant activity against PTZ-induced epileptic seizure Sprague-Dawley rat model assessed as latency time of seizures compound infused into hippocampal region and 10 mins later injected with PTZ and measured for 2 hrs post PTZ-stimulation (reference value: 108.5 +/- 8.63 sec); format: functional
Rattus norvegicus [22] = organism: Rattus norvegicus; assay: as §2, with “granular” for “pyramidal”, “ipsilateral” for “contralateral”, “DG” for “CA1”; format: functional, organism-based

## CC[C@H](C)[C@H](NC(=O)[C@H](CC(C)C)NC(=O)CNC(=O)[C@H](Cc1ccccc1)NC(=O)[C@H](CO)NC(=O)CN)C(=O)N[C@@H](CC(=O)O)C(=O)N[C@H](C(=O)N[C@@H](CCCCN)C(=O)N[C@H]1CSSC[C@@H]2NC(=O)[C@H](CCCCN)NC(=O)CNC(=O)[C@H](CCC(N)=O)NC(=O)CNC(=O)[C@H](C)NC(=O)CNC(=O)[C@H]([C@@H](C)O)NC(=O)[C@H](C(C)C)NC(=O)[C@H](CCCCN)NC(=O)[C@H](CCCCN)NC(=O)[C@@H]3CSSC[C@@H](C(=O)N[C@@H](Cc4ccc(O)cc4)C(=O)O)N[C@@H](CCCNC(=N)N)C(=O)[C@H](CSSC[C@H](NC(=O)[C@H](CCC(=O)O)NC(=O)[C@H](CO)NC(=O)[C@H](CO)NC(=O)[C@H](C)NC(=O)[C@H](Cc4ccccc4)NC1=O)C(=O)N[C@@H](Cc1c[nH]c4ccccc14)C(=O)N[C@@H]([C@@H](C)O)C(=O)N[C@@H](C)C(=O)N3)N[C@@H](CCC(N)=O)C(=O)NC(=O)[C@H](CC(N)=O)NC(=O)[C@H](CC(N)=O)NC(=O)[C@H](CCC(N)=O)NC2=O)C(C)C
[1]; read-out: Kd
  Kd: 109000 µM
KCNMA1/KCNMB4
  Ratio: 0.75

## CC[C@H](C)[C@H](NC(=O)[C@H](CC(C)C)NC(=O)CNC(=O)[C@H](Cc1ccccc1)NC(=O)[C@H](CO)NC(=O)CN)C(=O)N[C@@H](CC(=O)O)C(=O)N[C@H](C(=O)N[C@@H](CCCCN)C(=O)N[C@H]1CSSC[C@@H]2NC(=O)[C@H](CCCCN)NC(=O)CNC(=O)[C@H](CCC(N)=O)NC(=O)CNC(=O)[C@H](CO)NC(=O)CNC(=O)[C@H]([C@@H](C)O)NC(=O)[C@H](C(C)C)NC(=O)[C@H](CCCCN)NC(=O)[C@H](CCCCN)NC(=O)[C@@H]3CSSC[C@@H](C(=O)N[C@@H](Cc4ccc(O)cc4)C(=O)O)N[C@@H](CCCNC(=N)N)C(=O)[C@H](CSSC[C@H](NC(=O)[C@H](CCC(=O)O)NC(=O)[C@H](CO)NC(=O)[C@H](CO)NC(=O)[C@H](C)NC(=O)[C@H](Cc4ccccc4)NC1=O)C(=O)N[C@@H](Cc1c[nH]c4ccccc14)C(=O)N[C@@H](C(C)C)C(=O)N[C@@H](C)C(=O)N3)N[C@@H](CCC(N)=O)C(=O)NC(=O)[C@H](CC(N)=O)NC(=O)[C@H](CC(N)=O)NC(=O)[C@H](CCC(N)=O)NC2=O)C(C)C
[1]; read-out: Kd
  Kd: 550 µM
KCNMA1/KCNMB4
  Ratio: 0.36

## CC[C@H](C)[C@H](NC(=O)[C@H](CC(C)C)NC(=O)CNC(=O)[C@H](Cc1ccccc1)NC(=O)[C@H](CO)NC(=O)CN)C(=O)N[C@@H](CC(=O)O)C(=O)N[C@H](C(=O)N[C@@H](CCCCN)C(=O)N[C@H]1CSSC[C@@H]2NC(=O)[C@H](CCCCN)NC(=O)CNC(=O)[C@H](C)NC(=O)CNC(=O)[C@H](CO)NC(=O)CNC(=O)[C@H]([C@@H](C)O)NC(=O)[C@H](C(C)C)NC(=O)[C@H](CCCCN)NC(=O)[C@H](CCCCN)NC(=O)[C@@H]3CSSC[C@@H](C(=O)N[C@@H](Cc4ccc(O)cc4)C(=O)O)N[C@@H](CCCNC(=N)N)C(=O)[C@H](CSSC[C@H](NC(=O)[C@H](CCC(=O)O)NC(=O)[C@H](CO)NC(=O)[C@H](CO)NC(=O)[C@H](C)NC(=O)[C@H](Cc4ccccc4)NC1=O)C(=O)N[C@@H](Cc1c[nH]c4ccccc14)C(=O)N[C@@H]([C@@H](C)O)C(=O)N[C@@H](C)C(=O)N3)N[C@@H](CCC(N)=O)C(=O)NC(=O)[C@H](CC(N)=O)NC(=O)[C@H](CC(N)=O)NC(=O)[C@H](CCC(N)=O)NC2=O)C(C)C
Rattus norvegicus [2]
  inhibition: inactive
Rattus norvegicus [3]
  inhibition: inactive
Rattus norvegicus [4]
  Activity: inactive
Rattus norvegicus [5]
  Activity: inactive
Rattus norvegicus [6]
  inhibition: inactive
[1]; read-out: Kd
  Kd: 640 µM
Rattus norvegicus [7]
  Activity: inactive
Rattus norvegicus [8]
  Activity: inactive
Rattus norvegicus [9]
  Activity: inactive
Rattus norvegicus [10]
  inhibition: inactive
Rattus norvegicus [11]
  Time: 316.66 to 353.33 s
[12]
  inhibition: Active
KCNMA1/KCNMB4
  Ratio: 0.74
Rattus norvegicus [13]
  Activity: inactive
Rattus norvegicus [14]
  inhibition: inactive
Rattus norvegicus [15]
  Activity: inactive
[16]
  inhibition: inactive
[17]
  inhibition: inactive
Rattus norvegicus [18]
  inhibition: inactive
Rattus norvegicus [19]
  Activity: Active
Rattus norvegicus [20]
  Activity: inactive
Rattus norvegicus [21]
  Time: 219.5 to 266.5 s
Rattus norvegicus [22]
  Activity: Active

## CC[C@H](C)[C@H](NC(=O)[C@H](CC(C)C)NC(=O)CNC(=O)[C@H](Cc1ccccc1)NC(=O)[C@H](CO)NC(=O)CN)C(=O)N[C@@H](CC(=O)O)C(=O)N[C@H](C(=O)N[C@@H](CCCCN)C(=O)N[C@H]1CSSC[C@@H]2NC(=O)[C@H](CCC(=O)O)NC(=O)CNC(=O)[C@H](CCC(N)=O)NC(=O)CNC(=O)[C@H](CO)NC(=O)CNC(=O)[C@H]([C@@H](C)O)NC(=O)[C@H](C(C)C)NC(=O)[C@H](CCCCN)NC(=O)[C@H](CCCCN)NC(=O)[C@@H]3CSSC[C@@H](C(=O)N[C@@H](Cc4ccc(O)cc4)C(=O)O)N[C@@H](CC(=O)O)C(=O)[C@H](CSSC[C@H](NC(=O)[C@H](CCC(=O)O)NC(=O)[C@H](CO)NC(=O)[C@H](CO)NC(=O)[C@H](C)NC(=O)[C@H](Cc4ccccc4)NC1=O)C(=O)N[C@@H](Cc1c[nH]c4ccccc14)C(=O)N[C@@H]([C@@H](C)O)C(=O)N[C@@H](C)C(=O)N3)N[C@@H](CCC(N)=O)C(=O)NC(=O)[C@H](CC(N)=O)NC(=O)[C@H](CC(N)=O)NC(=O)[C@H](CCC(N)=O)NC2=O)C(C)C
[1]
  Kd: Not Active
KCNMA1/KCNMB4
  Ratio: 0.8

## CC[C@H](C)[C@H](NC(=O)[C@H](CC(C)C)NC(=O)CNC(=O)[C@H](Cc1ccccc1)NC(=O)[C@H](CO)NC(=O)CN)C(=O)N[C@@H](CCCCN)C(=O)N[C@H](C(=O)N[C@@H](CCCCN)C(=O)N[C@H]1CSSC[C@@H]2NC(=O)[C@H](CCCCN)NC(=O)CNC(=O)[C@H](CCC(N)=O)NC(=O)CNC(=O)[C@H](CO)NC(=O)CNC(=O)[C@H]([C@@H](C)O)NC(=O)[C@H](C(C)C)NC(=O)[C@H](CCCCN)NC(=O)[C@H](CCCCN)NC(=O)[C@@H]3CSSC[C@@H](C(=O)N[C@@H](Cc4ccc(O)cc4)C(=O)O)N[C@@H](CCCNC(=N)N)C(=O)[C@H](CSSC[C@H](NC(=O)[C@H](CCCCN)NC(=O)[C@H](CO)NC(=O)[C@H](CO)NC(=O)[C@H](C)NC(=O)[C@H](Cc4ccccc4)NC1=O)C(=O)N[C@@H](Cc1c[nH]c4ccccc14)C(=O)N[C@@H]([C@@H](C)O)C(=O)N[C@@H](C)C(=O)N3)N[C@@H](CCC(N)=O)C(=O)NC(=O)[C@H](CC(N)=O)NC(=O)[C@H](CC(N)=O)NC(=O)[C@H](CCC(N)=O)NC2=O)C(C)C
[1]; read-out: Kd
  Kd: 1100 µM
KCNMA1/KCNMB4
  Ratio: 0.56
